Assay results taken from US9458172B2, “Pyridinyl and pyrimidinyl sulfoxide and sulfone derivatives” (priority 2012, dated 2016).
Like-named read-outs stand apart in the source and are kept apart here.

How the values were obtained:
A2780 cells = assay: In-Vitro Cell Proliferation Assay (SRB); details: Homo sapiens, A2780, 72 h
Method: Assay 2: In-Vitro Cell Proliferation Assay
Assay Method. […] The compounds were then further diluted to 10 OX final concentration in culture media, whereupon 20 μL of each dilution was added to the plated cells with controls (e.g. DMSO and blank) to make a final volume of 200 μL. The final DMSO concentration in each well was 0.1%. The plates were then incubated for 72 h at 37° C. in a 5% CO2 incubator. The number of viable cells was then assessed using sulforhodamine B (SRB) assay. Cells were fixed at 4° C. for 1 h with the addition of 50 μL 30% trichloroacetic acid (TCA) to make a final concentration of 6% TCA. The plates were washed four times with H2O and allowed to dry for at least 1 h, whereupon 100 μL of a 4% SRB in 1% acetic acid solution was added to each well and incubated at rt for at least 30 min. The plates were then washed three times with 1% acetic acid, dried, and treated with 100 μL of 10 mM Tris-Base solution. The plates were then read in a microplate reader at an absorbance of 570 nm. Background was generated on a separate plate with media only.
Determination of IC50 Values. First, the signals from the background plate were averaged, then the background was subtracted from the test plates.
The specificity of the compounds were determined via cell viability assay in the presence of the compound and either NAM or NMN Percent inhibitions were determined using the method given above.

NAMPT = NAMPT (Homo sapiens (Human), UniProt P43490); assay: Biochemical Inhibition Assay (NAMPT enzymatic reaction, NMN quantified by mass spectrometry); details: 33 nM recombinant His-tagged NAMPT, 1 μM NAM, 30 min at rt
NAMPT, sequence (P43490 whole entry): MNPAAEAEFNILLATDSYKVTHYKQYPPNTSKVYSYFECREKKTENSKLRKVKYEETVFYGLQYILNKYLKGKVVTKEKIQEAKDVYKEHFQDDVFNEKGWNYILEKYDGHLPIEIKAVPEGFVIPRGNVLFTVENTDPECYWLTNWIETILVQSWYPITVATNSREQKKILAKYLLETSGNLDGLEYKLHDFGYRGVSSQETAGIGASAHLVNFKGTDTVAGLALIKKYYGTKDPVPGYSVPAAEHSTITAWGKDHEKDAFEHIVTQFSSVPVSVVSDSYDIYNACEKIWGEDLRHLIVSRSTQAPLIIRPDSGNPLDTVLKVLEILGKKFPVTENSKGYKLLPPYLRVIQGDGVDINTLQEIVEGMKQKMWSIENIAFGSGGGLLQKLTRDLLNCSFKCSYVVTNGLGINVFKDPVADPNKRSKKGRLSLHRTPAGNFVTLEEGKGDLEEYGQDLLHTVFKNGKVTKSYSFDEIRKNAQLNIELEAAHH
Outline: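 His-tagged human NAMPT from E. coli preincubated 15 min at rt with compound in 50 mM Hepes pH 7.5, 50 mM NaCl, 5 mM MgCl2, 1 mM THP, then reacted 30 min at rt with 1 μM NAM, […] PRPP, 2.5 mM ATP. NMN quantified by RapidFire mass spectrometry, normalized to L-Cystathionine, background subtracted.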

[1] = read-out: Cell Proliferation (IC50)
[2] = read-out: Cell Proliferation (IC50), A2780 cells, 72 h, sulforhodamine B

Row | Compound | IC50 (A2780 cells; [1]) | IC50 (NAMPT) | IC50 (A2780 cells; [2])
1 | O=C(NCc1ccc(S(=O)(=O)C2CCN(CC(F)(F)F)CC2)cn1)c1ccc2nccn2c1 [Example 152, N-[[5-[[1-(2,2,2-trifluoroethyl)-4-piperidyl]sulfonyl]-2-pyridyl]methyl]imidazo[1,2-a]pyridine-6-carboxamide] | 106 nM | 247 nM | –
2 | O=C(NCc1ccc(S(=O)(=O)C2CCN(CC(F)(F)F)CC2)cn1)c1cnc2[nH]ncc2c1 [Example 153, N-[[5-[[1-(2,2,2-trifluoroethyl)-4-piperidyl]sulfonyl]-2-pyridyl]methyl]-1H-pyrazolo[3,4-b]pyridine-5-carboxamide] | 1340 nM | 1740 nM | –
3 | O=C(NCc1ccc(S(=O)(=O)c2cccc(N3CCOCC3)c2)cn1)c1ccc2nccn2c1 [Example 154, N-[[5-(3-morpholinophenyl)sulfonyl-2-pyridyl]methyl]imidazo[1,2-a]pyridine-6-carboxamide] | 46.5 nM | 39.8 nM | –
4 | N#Cc1cccc(S(=O)(=O)c2ccc(CNC(=O)c3ccc4nccn4c3)nc2)c1 [Example 155, N-[[5-(3-cyanophenyl)sulfonyl-2-pyridyl]methyl]imidazo[1,2-a]pyridine-6-carboxamide] | 89.7 nM | 74 nM | –
5 | N#Cc1cccc(S(=O)(=O)c2ccc(CNC(=O)c3cnc4[nH]ncc4c3)nc2)c1 [Example 156, N-[[5-(3-cyanophenyl)sulfonyl-2-pyridyl]methyl]-1H-pyrazolo[3,4-b]pyridine-5-carboxamide] | 940 nM | 452 nM | –
6 | O=C(NCc1ccc(S(=O)(=O)c2cccc(N3CCOCC3)c2)cn1)c1cnc2[nH]ncc2c1 [Example 157, N-[[5-(3-morpholinophenyl)sulfonyl-2-pyridyl]methyl]-1H-pyrazolo[3,4-b]pyridine-5-carboxamide] | 217 nM | 290 nM | –
7 | N#Cc1cccc(S(=O)(=O)c2ccc(CNC(=O)N3Cc4ccncc4C3)nc2)c1 [Example 158, N-[[5-(3-cyanophenyl)sulfonyl-2-pyridyl]methyl]-1,3-dihydropyrrolo[3,4-c]pyridine-2-carboxamide] | 2000 nM | 156 nM | –
8 | O=C(NCc1ccc(S(=O)(=O)C2CCN(C3CCOCC3)CC2)cn1)c1ccc2nccn2c1 [Example 161, N-[[5-[(1-tetrahydropyran-4-yl-4-piperidyl)sulfonyl]-2-pyridyl]methyl]imidazo[1,2-a]pyridine-6-carboxamide] | 52.8 nM | 253 nM | –
9 | O=C(NCc1ccc(S(=O)(=O)C2CCN(C3CCOCC3)CC2)cn1)c1cnc2[nH]ncc2c1 [Example 162, N-[[5-[(1-tetrahydropyran-4-yl-4-piperidyl)sulfonyl]-2-pyridyl]methyl]-1H-pyrazolo[3,4-b]pyridine-5-carboxamide] | 295 nM | 1830 nM | –
10 | O=C(NCc1ccc(S(=O)(=O)c2cncc(C(F)(F)F)c2)cn1)c1cc2ccncc2o1 [Example 163, N-[[5-[[5-(trifluoromethyl)-3-pyridyl]sulfonyl]-2-pyridyl]methyl]furo[2,3-c]pyridine-2-carboxamide] | 25.3 nM | 49.5 nM | –
11 | O=C(NCc1ccc(S(=O)(=O)c2cncc(Cl)c2)cn1)c1cnc2[nH]ncc2c1 [Example 164, N-[[5-[(5-chloro-3-pyridyl)sulfonyl]-2-pyridyl]methyl]-1H-pyrazolo[3,4-b]pyridine-5-carboxamide] | 49.4 nM | 143 nM | –
12 | O=C(NCc1ccc(S(=O)(=O)c2cncc(C(F)(F)F)c2)cn1)c1cnc2[nH]ncc2c1 [Example 165, N-[[5-[[5-(trifluoromethyl)-3-pyridyl]sulfonyl]-2-pyridyl]methyl]-1H-pyrazolo[3,4-b]pyridine-5-carboxamide] | 64.4 nM | 217 nM | –
13 | O=C(NCc1ccc(S(=O)(=O)C2CCN(CC(F)(F)F)CC2)cn1)c1cc2cnccc2[nH]1 [Example 166, N-[[5-[[1-(2,2,2-trifluoroethyl)-4-piperidyl]sulfonyl)-2-pyridyl]methyl]-1H-pyrrolo[3,2-c]pyridine-2-carboxamide] | 91 nM | 224 nM | –
14 | O=C(NCc1ccc(S(=O)(=O)c2cnc(N3CCOCC3)nc2)cn1)c1ccc2nccn2c1 [Example 167, N-[[5-(2-morpholinopyrimidin-5-yl)sulfonyl-2-pyridyl]methyl]imidazo[1,2-a]pyridine-6-carboxamide] | 6.7 nM | 23 nM | –
15 | O=C(NCc1ccc(S(=O)(=O)c2cncc(C(F)(F)F)c2)cn1)c1ccc2nccn2c1 [Example 168, N-[[5-[[5-(trifluoromethyl)-3-pyridyl]sulfonyl]-2-pyridyl]methyl]imidazo[1,2-a]pyridine-6-carboxamide] | 14.9 nM | 60.8 nM | –
16 | O=C(NCc1ccc(S(=O)(=O)c2cncc(Cl)c2)cn1)c1cc2ccncc2o1 [Example 169, N-[[5-[(5-chloro-3-pyridyl)sulfonyl]-2-pyridyl]methyl]furo[2,3-c]pyridine-2-carboxamide] | 26.9 nM | 66.4 nM | –
17 | O=C(NCc1ccc(S(=O)(=O)c2cncc(C(F)(F)F)c2)cn1)N1Cc2ccncc2C1 [Example 170, N-[[5-[[5-(trifluoromethyl)-3-pyridyl]sulfonyl]-2-pyridyl]methyl]-1,3-dihydropyrrolo[3,4-c]pyridine-2-carboxamide] | 25.4 nM | 49.1 nM | –
18 | CCCn1cc(S(=O)(=O)c2ccc(CNC(=O)c3cc4cnccc4[nH]3)nc2)cn1 [Example 171, N-[[5-(1-propylpyrazol-4-yl)sulfonyl-2-pyridyl]methyl]-1H-pyrrolo[3,2-c]pyridine-2-carboxamide] | – | 62 nM | 51.2 nM
19 | CC(C)CN1CCC([S+]([O-])c2ccc(CNC(=O)c3ccc4nccn4c3)nc2)CC1 (stereo not drawn) [Example 172, N-[[5-[(1-isobutyl-4-piperidyl)sulfinyl]-2-pyridyl]methyl]imidazo[1,2-a]pyridine-6-carboxamide] | 106 nM | 249 nM | –
20 | O=C(NCc1ccc([S+]([O-])C2CCN(CC(F)(F)F)CC2)cn1)c1ccc2nccn2c1 (stereo not drawn) [Example 173, N-[[5-[[1-(2,2,2-trifluoroethyl)-4-piperidyl]sulfinyl]-2-pyridyl]methyl]imidazo[1,2-a]pyridine-6-carboxamide] | 63.1 nM | 202 nM | –
21 | N#Cc1cncc(S(=O)(=O)c2ccc(CNC(=O)c3cc4ccncc4o3)nc2)c1 [Example 174, N-[[5-[(5-cyano-3-pyridyl)sulfonyl]-2-pyridyl]methyl]furo[2,3-c]pyridine-2-carboxamide] | 116 nM | 217 nM | –
22 | CCn1cc(S(=O)(=O)c2ccc(CNC(=O)N3Cc4ccncc4C3)nc2)cn1 [Example 177, N-[[5-(1-ethylpyrazol-4-yl)sulfonyl-2-pyridyl]methyl]-1,3-dihydropyrrolo[3,4-c]pyridine-2-carboxamide] | – | 32 nM | 264 nM
23 | O=C(NCc1ccc(S(=O)(=O)c2ccccc2)cn1)N1Cc2cn[nH]c2C1 [Example 178, N-[[5-(benzenesulfonyl)-2-pyridyl]methyl]-4,6-dihydro-1H-pyrrolo[3,4-c]pyrazole-5-carboxamide] | 2000 nM | 2000 nM | –
24 | Cn1ncc2c1CN(C(=O)NCc1ccc(S(=O)(=O)c3ccccc3)cn1)C2 [Example 179, N-[[5-(benzenesulfonyl)-2-pyridyl]methyl]-1-methyl-4,6-dihydropyrrolo[3,4-c]pyrazole-5-carboxamide] | – | 1380 nM | 2000 nM
